Test system: mouse colon carcinoma (colon 26 carcinoma)
Test: Fluorescence imaging test (Test Example 2), tumor bearing nude mice, excitation 740 nm
Format: in vivo
Method: Tumor bearing mice were prepared in the same manner as Test Example 1, and conditions for irradiation was the same as those explained in Test Example 1. Compound 5, Compound 7, and Compound 10 were used as test compounds. Each of the test compounds (0.5 mg/ml) was dissolved in physiological saline or phosphate buffer (pH 7.4) and administered to the mice via a tail vein at the dose of 5.0 mg/Kg. For comparison, the following compound (Compound B, 5 mg/kg, i.v.) was administered to the mice.
Light was generated using a tunable, pulsed, solid state laser system consisting of an optical parametric oscillator (OPO) pumped by the third harmonic of a Nd:Yag laser (Coherent Inc.). An excitation wavelength of λex=740 nm was chosen and guided with an optical fiber to the tumor bearing nude mice. The dye-specific fluorescence exitance was imaged using a filter combination (Corion) and an intensified CCD camera (Roper Scientific.) at different times after dye administration (FIG. 4). Fluorescence imagings were taken before administration, and 1 min, 10 min, 30 min, 60 min, 2 hours, 4 hours, 24 hours after intravenous dye administration via the lateral tail venous at a standard dose of 5 mg/kg. In the first 60 min, the body temperature of the animals was kept at 38° C. with heating pad. Fluorescence imaging properties of the compounds were compared in nude mice tumor models. […]

Row | SMILES | tumor imaging as compared to the reference compound (Compound B) (5.0 mg/Kg via tail vein) | position of tumor within 1 hour after the administration (5 mg/kg, i.v., FIG. 8)
1 | CC(/C=C/C=C1/N(CCC(=O)NC(CC(=O)O)C(=O)O)c2ccc3ccccc3c2C1(C)C)=C\C=C\C1=[N+](CCC(=O)NC(CC(=O)O)C(=O)O)c2ccc3ccccc3c2C1(C)C (centres unmarked) [Compound 5] | clear images of tumors at a shorter time | 
2 | CC1(C)C(/C=C/C=C/C=C/C=C2/N(CCCCS(=O)(=O)[O-])c3ccc(C(=O)NCC(O)C(O)C(O)C(O)CO)cc3C2(C)C)=[N+](CCCCS(=O)(=O)[O-])c2ccc(C(=O)NCC(O)C(O)C(O)C(O)CO)cc21.[Na+] (centres unmarked) [Compound B] |  | not clear

Source: patent US7473415B2, “Near infrared fluorescent contrast agent and method for fluorescence imaging” (Fuji Photo Film Co., Ltd., priority 2002, dated 2009)
